Molecular target: CCR5 chemokine receptor (Homo sapiens, UniProt P51681)
Test: Inhibition Data (IC50; no method described)
Details: assay not described, read-out: Activity (*) (IC50 class)

Chain of CCR5 chemokine receptor (P51681 whole entry): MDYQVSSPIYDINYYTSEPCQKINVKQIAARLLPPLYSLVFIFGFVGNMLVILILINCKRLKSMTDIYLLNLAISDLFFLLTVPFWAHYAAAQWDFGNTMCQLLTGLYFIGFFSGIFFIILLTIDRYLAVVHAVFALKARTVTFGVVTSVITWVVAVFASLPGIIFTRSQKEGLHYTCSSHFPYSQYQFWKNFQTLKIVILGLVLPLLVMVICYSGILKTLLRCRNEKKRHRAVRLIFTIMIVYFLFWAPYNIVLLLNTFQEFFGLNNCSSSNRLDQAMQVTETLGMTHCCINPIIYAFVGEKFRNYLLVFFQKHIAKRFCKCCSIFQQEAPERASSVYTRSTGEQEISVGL

Row | IC50 [nM] | SMILES
1 | < 1 | CN(C[C@@](C)(CCN1CC[C@@H]2[C@@H](CCN2C(=O)OC(C)(C)C)C1)c1ccccc1)S(=O)(=O)c1ccccc1 [Example 1]
2 | < 1000 | CN(C[C@@](C)(CCN1CC[C@H]2[C@H](CCN2C(=O)OC(C)(C)C)C1)c1ccccc1)S(=O)(=O)c1ccccc1 [Example 2]
3 | < 1000 | CN(C[C@@](C)(CCN1CC[C@H]2[C@H](CCN2C(=O)OC(C)(C)C)C1)c1ccccc1)S(=O)(=O)c1ccc(CNC(=O)O[C@H]2CCOC2)cc1 [Example 3]
4 | < 1 | CN(C[C@@](C)(CCN1CC[C@@H]2[C@@H](CCN2C(=O)OC(C)(C)C)C1)c1ccccc1)S(=O)(=O)c1ccc(CNC(=O)O[C@H]2CCOC2)cc1 [Example 4]
5 | < 100 | CN(C[C@@](C)(CCN1C2CCC1CC(NC(=O)OCc1ccccc1)C2)c1ccccc1)S(=O)(=O)c1ccccc1 (some centres unmarked) [Example 5]
6 | < 100 | CN(C[C@@](C)(CCN1C2CCC1CC(NC(=O)OCc1ccccc1)C2)c1ccccc1)S(=O)(=O)c1ccccc1 (some centres unmarked) [Example 6]
7 | < 100 | CN(C[C@@](C)(CCN1CC[C@H]2CN(C(=O)OCc3ccccc3)C[C@H]2C1)c1ccccc1)S(=O)(=O)c1ccccc1 [Example 7]
8 | < 1000 | CN(C[C@@](C)(CCN1CC[C@H]2CNC[C@H]2C1)c1ccccc1)S(=O)(=O)c1ccccc1 [Example 8]
9 | < 100 | CN(C[C@@](C)(CCN1CC[C@H]2CN(C(=O)OC(C)(C)C)C[C@H]2C1)c1ccccc1)S(=O)(=O)c1ccccc1 [Example 9]
10 | < 100 | CN(C[C@@](C)(CCN1C[C@H]2CCN(C(=O)OC(C)(C)C)C[C@H]2C1)c1ccccc1)S(=O)(=O)c1ccccc1 [Example 10]
11 | < 100 | CN(C[C@@](C)(CCN1CC[C@H]2CN(C(=O)OCc3ccccc3)C[C@H]2C1)c1ccccc1)S(=O)(=O)c1ccccc1 [Example 11]
12 | < 100 | C[C@@H](NC(=O)N1CC2CCN(CC[C@](C)(CN(C)S(=O)(=O)c3ccccc3)c3ccccc3)C[C@@H]2C1)c1ccccc1 (some centres unmarked) [Example 12]
13 | < 100 | C[C@@H](NC(=O)N1CC2CCN(CC[C@](C)(CN(C)S(=O)(=O)c3ccccc3)c3ccccc3)C[C@@H]2C1)c1ccccc1 (some centres unmarked) [Example 13]
14 | < 1000 | C[C@H](NC(=O)N1C[C@H]2CN(CC[C@](C)(CN(C)S(=O)(=O)c3ccccc3)c3ccccc3)CC[C@H]2C1)c1ccccc1 [Example 14]
15 | < 100 | C[C@H](c1ccccc1)N(C)C(=O)N1C[C@H]2CN(CC[C@](C)(CN(C)S(=O)(=O)c3ccccc3)c3ccccc3)CC[C@H]2C1 [Example 15]
16 | < 10 | Cc1nnc(C(C)C)n1C1CC2CCC(C1)N2CC[C@](C)(CN(C)S(=O)(=O)c1ccccc1)c1ccccc1 (some centres unmarked) [Example 16]
17 | < 1000 | C[C@H](NC(=O)N1CC2CN(CC[C@](C)(CN(C)S(=O)(=O)c3ccccc3)c3ccccc3)CC[C@H]2C1)c1cccc2ccccc12 (some centres unmarked) [Example 17]
18 | < 1000 | Cc1ccc(S(=O)(=O)N2C[C@H]3CN(CC[C@](C)(CN(C)S(=O)(=O)c4ccccc4)c4ccccc4)CC[C@H]3C2)cc1 [Example 18]
19 | < 1000 | Cc1nc(COC(=O)N2C[C@H]3CN(CC[C@](C)(CN(C)S(=O)(=O)c4ccccc4)c4ccccc4)CC[C@H]3C2)c(C)o1 [Example 19]
20 | < 100 | CC(C)COC(=O)NC1CC2CCC(C1)N2CC[C@](C)(CN(C)S(=O)(=O)c1ccccc1)c1ccccc1 (some centres unmarked) [Example 20]
21 | < 100 | CN(C[C@@](C)(CCN1C2CCC1CC(NC(=O)O[C@H]1CCOC1)C2)c1ccccc1)S(=O)(=O)c1ccccc1 (some centres unmarked) [Example 21]
22 | < 1000 | CN(C[C@@](C)(CCN1CC2CCN(C(=O)OC(C)(C)C)C2C1)c1ccccc1)S(=O)(=O)c1ccccc1 (some centres unmarked) [Example 22]

Row | IC50 [nM] | SMILES
23 | < 10 | CN(CC(C)(CCN1CCC2C(CCN2C(=O)OC(C)(C)C)C1)c1ccccc1)S(=O)(=O)c1ccccc1 (centres unmarked) [Example 25]
24 | < 1000 | CC(C)(C)OC(=O)N1CCC2CN(C(=O)[C@H](Cc3ccccc3)NC(=O)OCc3ccccc3)CCC21 (some centres unmarked) [Example 26]
25 | < 1000 | CC(C)(C)OC(=O)N1CCC2CN(C(=O)[C@@H](N)Cc3ccccc3)CCC21 (some centres unmarked) [Example 27]
26 | < 100 | CN(CC(C)(CCN1CCC2C(CCN2C(=O)OC2CO[C@H]3OCCC23)C1)c1ccccc1)S(=O)(=O)c1ccccc1 (some centres unmarked) [Example 28]
27 | < 1000 | CN(CC(C)(CCN1CCC2C(CCN2C(=O)OC2CCOC2)C1)c1ccccc1)S(=O)(=O)c1ccccc1 (centres unmarked) [Example 29]
28 | < 1000 | CO[C@@](CCN1CCC2C(CCN2C(=O)OC(C)(C)C)C1)(CN(C)S(=O)(=O)c1ccccc1)c1ccccc1 (some centres unmarked) [Example 30]
29 | < 1000 | CO[C@](CCN1CCC2C(CCN2C(=O)OC(C)(C)C)C1)(CN(C)S(=O)(=O)c1ccccc1)c1ccccc1 (some centres unmarked) [Example 31]
30 | < 100 | CN(CC(C)(CCN1CCC2C(CCN2C(=O)OC(C)(C)C)C1)c1ccccc1)S(=O)(=O)c1ccccc1 (centres unmarked) [Example 32]
31 | < 1000 | CN(CC(C)(CCN1CCC2C(CCN2C(=O)OC(C)(C)C)C1)c1ccccc1)S(=O)(=O)c1ccc(C(=O)OCc2ccccc2)cc1 (centres unmarked) [Example 33]
32 | < 100 | CN(CC(C)(CCN1CCC2C(CCN2C(=O)OC(C)(C)C)C1)c1ccccc1)S(=O)(=O)c1ccc(C(=O)O)cc1 (centres unmarked) [Example 34]
33 | < 100 | CC(=O)OC(OC(C)=O)c1ccc(S(=O)(=O)N(C)CC(C)(CCN2CCC3C(CCN3C(=O)OC(C)(C)C)C2)c2ccccc2)cc1 (centres unmarked) [Example 35]
34 | < 100 | COC(OC)c1ccc(S(=O)(=O)N(C)CC(C)(CCN2CCC3C(CCN3C(=O)OC(C)(C)C)C2)c2ccccc2)cc1 (centres unmarked) [Example 36]
35 | < 1000 | CN(CC(C)(CCN1CCC2C(CCN2C(=O)OC(C)(C)C)C1)c1ccccc1)S(=O)(=O)c1ccc(CNC(=O)OCc2ccccc2)cc1 (centres unmarked) [Example 37]
36 | < 100 | CC(=O)NCc1ccc(S(=O)(=O)N(C)CC(C)(CCN2CCC3C(CCN3C(=O)OC(C)(C)C)C2)c2ccccc2)cc1 (centres unmarked) [Example 38]
37 | < 1000 | CN(CC(C)(CCN1CCC2C(CCN2C(=O)OC(C)(C)C)C1)c1ccccc1)S(=O)(=O)c1ccc(CNC(=O)OC(C)(C)C)cc1 (centres unmarked) [Example 39]
38 | < 100 | CN(CC(C)(CCN1CCC2C(CCN2C(=O)OC(C)(C)C)C1)c1ccccc1)S(=O)(=O)c1ccc(CNC(=O)O[C@H]2CCOC2)cc1 (some centres unmarked) [Example 40]
39 | < 1000 | CN(CC(C)(CCN1CCC2C(CCN2C(=O)OC(C)(C)C)C1)c1ccccc1)S(=O)(=O)c1ccc(CN)cc1 (centres unmarked) [Example 41]
40 | < 100 | CN(C[C@@](C)(CCN1CCC2C(CCN2C(=O)OC(C)(C)C)C1)c1ccccc1)S(=O)(=O)c1ccccc1 (some centres unmarked) [Example 43]
41 | < 10 | CN(C[C@@](C)(CCN1CC[C@@H]2[C@@H](CCN2C(=O)OC(C)(C)C)C1)c1ccccc1)S(=O)(=O)c1ccccc1 [Example 44]
42 | < 1000 | CN(C[C@@](C)(CCN1CC[C@@H]2[C@@H](CCN2C(=O)OC(C)(C)C)C1)c1ccccc1)S(=O)(=O)c1ccccc1 [Example 46]
43 | < 1000 | CC1CN(CC[C@](C)(CN(C)S(=O)(=O)c2ccccc2)c2ccccc2)CCC12C=Cc1ccccc12 (some centres unmarked) [Example 48]
44 | < 100 | COc1ccc(C(C)(CCN2CCC3C(CCN3C(=O)OC(C)(C)C)C2)CN(C)S(=O)(=O)c2ccccc2)cc1 (centres unmarked) [Example 49]

Row | IC50 [nM] | SMILES
45 | < 1000 | COc1cccc(C(C)(CCN2CCC3C(CCN3C(=O)OC(C)(C)C)C2)CN(C)S(=O)(=O)c2ccccc2)c1 (centres unmarked) [Example 50]
46 | < 1000 | CN1N=C2CCN(CC[C@](C)(CN(C)S(=O)(=O)c3ccccc3)c3ccccc3)CC2(C)C1=O (some centres unmarked) [Example 51]
47 | < 1000 | CN1N=C2CCN(CC[C@](C)(CN(C)S(=O)(=O)c3ccccc3)c3ccccc3)CC2(Cc2ccccc2)C1=O (some centres unmarked) [Example 52]
48 | < 1000 | COC(=O)[C@@H](CCSC)NC(=O)C1CCN(CC[C@](C)(CN(C)S(=O)(=O)c2ccccc2)c2ccccc2)CC1 [Example 56]
49 | < 1000 | CN(C[C@@](C)(CCN1CCC2(CC1)CCN(C(=O)OC(C)(C)C)C2)c1ccccc1)S(=O)(=O)c1ccccc1 [Example 58]
50 | < 1000 | CN(C[C@@](C)(CCN1CC2CN(C(=O)OC(C)(C)C)[C@H]2C1)c1ccccc1)S(=O)(=O)c1ccccc1 (some centres unmarked) [Example 64]
51 | < 1000 | CN(C[C@@](C)(CCN1CCC2(CCCN2C(=O)OC(C)(C)C)CC1)c1ccccc1)S(=O)(=O)c1ccccc1 [Example 65]
52 | < 1000 | CN(C[C@@](C)(CCNC1C2CCC1CN(C(=O)OC(C)(C)C)C2)c1ccccc1)S(=O)(=O)c1ccccc1 (some centres unmarked) [Example 66]
53 | < 1000 | CN(C[C@@](C)(CCNC1CC2CCC(C1)N2C(=O)OC(C)(C)C)c1ccccc1)S(=O)(=O)c1ccccc1 (some centres unmarked) [Example 67]
54 | < 1000 | CN(C[C@@](C)(CCN1CC[C@H]2CNC(=O)[C@H]2C1)c1ccccc1)S(=O)(=O)c1ccccc1 [Example 69]
55 | < 1000 | CN(C[C@@](C)(CCN1C2CCC1CC(NC(=O)OC(C)(C)C)C2)c1ccccc1)S(=O)(=O)c1ccccc1 (some centres unmarked) [Example 70]
56 | < 1000 | CN(C[C@@](C)(CCN1CC[C@H]2OC(C)(C)O[C@H]2C1)c1ccccc1)S(=O)(=O)c1ccccc1 [Example 71]
57 | < 1000 | CC(C)[C@H](NC(=O)OCc1ccccc1)C(=O)N1CC2CN(C(=O)OC(C)(C)C)CC[C@H]2C1 (some centres unmarked) [Example 72]
58 | < 1000 | CC(C)(C)OC(=O)N1CC[C@H]2CN(C(=O)O[C@H]3CCOC3)C[C@H]2C1 [Example 74]
59 | < 1000 | CN(C[C@@](C)(CCN1CC[C@H]2CN(C(=O)OCc3ccccc3)C[C@H]2C1)c1ccccc1)S(=O)(=O)c1ccccc1 [Example 75]
60 | < 1000 | CN(C[C@@](C)(CCN1CC[C@H]2CN(C(N)=O)C[C@H]2C1)c1ccccc1)S(=O)(=O)c1ccccc1 [Example 76]
61 | < 1000 | CN(C[C@@](C)(CCN1CCc2[nH][nH]c(=O)c2C1)c1ccccc1)S(=O)(=O)c1ccccc1 [Example 78]
62 | < 1000 | C[C@H](NC(=O)N1CC2CN(CC[C@](C)(CN(C)S(=O)(=O)c3ccccc3)c3ccccc3)CC[C@H]2C1)c1cccc2ccccc12 (some centres unmarked) [Example 79]
63 | < 100 | Cc1nnc(C2CO[C@H]3OCCC23)n1C1CC2CCC(C1)N2CC[C@H](NC(=O)OCc1ccccc1)c1ccccc1 (some centres unmarked) [Example 80]
64 | < 1000 | Cc1nnc(C2CO[C@H]3OCCC23)n1C1CC2CCC(C1)N2CC[C@H](NS(=O)(=O)c1ccc2c(c1)OCO2)c1ccccc1 (some centres unmarked) [Example 81]
65 | < 1000 | Cc1nnc(C2CO[C@H]3OCCC23)n1C1CC2CCC(C1)N2CC[C@H](N)c1ccccc1 (some centres unmarked) [Example 82]

From patent US9062057B2, “CCR5 antagonists for treating HIV” (Purdue Research Foundation, priority 2010, dated 2015)
